Laboratory results as given in BindingDB's records for patent US11780849 (Volastra Therapeutics, 2023).

molecular target: T1, Ectonucleotide pyrophosphatase/phosphodiesterase family member 1 (Homo sapiens, UniProt P22413); assay: Inhibition of ENPP1 Hydrolysis of 2′,3′-cGAMP
T1 sequence (P22413 whole entry): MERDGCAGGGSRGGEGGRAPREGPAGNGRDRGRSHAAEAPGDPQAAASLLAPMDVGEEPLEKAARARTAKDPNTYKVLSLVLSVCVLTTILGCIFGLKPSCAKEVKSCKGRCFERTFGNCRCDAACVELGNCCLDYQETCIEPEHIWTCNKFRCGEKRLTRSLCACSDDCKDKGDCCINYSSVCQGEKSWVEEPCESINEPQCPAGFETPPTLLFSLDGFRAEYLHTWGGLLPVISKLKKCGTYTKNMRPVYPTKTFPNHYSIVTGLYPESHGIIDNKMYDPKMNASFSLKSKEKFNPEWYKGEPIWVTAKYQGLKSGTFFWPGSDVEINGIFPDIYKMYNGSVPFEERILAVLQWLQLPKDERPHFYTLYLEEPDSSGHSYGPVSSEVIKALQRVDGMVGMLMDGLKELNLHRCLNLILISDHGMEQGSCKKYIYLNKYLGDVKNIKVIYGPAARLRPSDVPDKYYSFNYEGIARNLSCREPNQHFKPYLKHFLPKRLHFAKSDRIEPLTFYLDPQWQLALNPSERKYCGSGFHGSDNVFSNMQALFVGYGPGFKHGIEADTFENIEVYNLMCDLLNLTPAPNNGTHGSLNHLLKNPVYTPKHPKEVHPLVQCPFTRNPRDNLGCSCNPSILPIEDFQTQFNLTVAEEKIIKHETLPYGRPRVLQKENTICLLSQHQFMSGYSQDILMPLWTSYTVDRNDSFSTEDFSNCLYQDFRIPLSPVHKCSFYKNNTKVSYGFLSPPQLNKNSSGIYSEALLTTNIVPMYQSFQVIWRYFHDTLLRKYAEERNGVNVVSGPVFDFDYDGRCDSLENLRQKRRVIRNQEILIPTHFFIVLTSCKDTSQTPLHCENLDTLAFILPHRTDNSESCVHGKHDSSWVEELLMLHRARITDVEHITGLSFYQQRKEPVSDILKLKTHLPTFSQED
Protocol: Assay 1: Test compounds were plated in a 3 dilution scheme in a 384 well plate. […] AMP Detection solution (100 μL) was added to each well, the plate centrifuged and incubated for 60 min. Luminescence was measured with an Envision plate reader, and % Inhibition was calculated for each well as: (([max−min]−[test−min])/[max−min].

SMILES	IC50 [nM]
COc1cc2nccc(-c3ccc4c(c3)CN(S(C)(=N)=O)CC4)c2cc1OC (configuration not stated) [US11780849, Compound 161]	< 10
COc1ccc2nccc(Oc3ccc(S(C)(=N)=O)cc3)c2n1 (configuration not stated) [US11780849, Compound 130]	> 1000
COc1cc2nccc(N3CCC(CCS(C)(=N)=O)CC3)c2cc1F (configuration not stated) [US11780849, Compound 150]	< 10
COc1cc2nncc(N3CCC(CCS(C)(=N)=O)CC3)c2cc1OC (configuration not stated) [US11780849, Compound 151]	< 10
COc1ccc2c(OCc3ccc(S(C)(=N)=O)cc3F)ccnc2c1 (configuration not stated) [US11780849, Compound 135]	< 10
COc1cccc2c(OCc3ccc(S(C)(=N)=O)cc3)ccnc12 (configuration not stated) [US11780849, Compound 134]	> 1000
COc1cc2nccc(N3CCC(CCS(C)(=N)=O)CC3)c2cc1Cl (configuration not stated) [US11780849, Compound 141]	< 10
